From patent US20240101548A1, “HYDROXAMATE COMPOUND, PREPARATION METHOD THEREFOR AND APPLICATION THEREOF” (SHENZHEN CHIPSCREEN BIOSCIENCES CO., LTD., priority 2020, published 2024)

How the values were obtained:
Type in all cases: cell-based, human
[1] = test system: IL-2-induced JAK1/JAK3 signal pathway; assay: IL-2-induced proliferation of KHYG-1 cells (JAK1/JAK3 signal); conditions: Homo sapiens; KHYG-1 cell proliferation, IL-2 10 ng/mL, 72 hours; read-out: Inhibition activity IC50 on IL-2-induced JAK1/JAK3 signal pathway
Method in brief: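 KHYG-1 NK lymphoma cells were cultured with IL-2 and test compound at various doses for 72 h at 37 °C and 5% CO2, and proliferation was read with alamarBlue fluorescence. Inhibition was normalized to wells without compound or cytokine (0%) and IL-2 wells without compound (100%), and C50 was derived from the dose-inhibition data.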

[2] = test system: IL-10-induced JAK1/TYK2 signal pathway; assay: IL-10-induced JAK1/TYK2 signal pathway STAT3-Luc reporter gene assay in U2OS cells; conditions: Homo sapiens, U2OS, U2OS cells, STAT3-Luc reporter, IL-10 10 ng/mL; read-out: Half inhibition dose (IC50) on IL-10-induced JAK1/TYK2 signal pathway
Excerpt: Cytokine IL-10 is one of the main members of IL-10 family. The receptor that cytokine IL-10 binds to consists of two kinds of subunits, i.e., IL-10R1 and IL-10R2, which respectively couple with JAK1 and TYK2. After the coupling of IL-10 with its receptor, interaction of phosphorylation occurs between JAK1 and TYK2 to form STAT3 docking site for phosphorylation of STAT3. The phosphorylated STAT3 enters the nucleus and drives the transcription and expression of downstream genes.
The reporter gene plasmid STAT3-Luc Reporter used in the present invention has luciferase expression sequence as the reporter gene, upstream of which is a promoter sequence containing multiple STAT3 binding sites. When phosphorylated STAT3 induced by IL-10 signal pathway binds to the promoter of STAT3-Luc Reporter plasmid, luciferase is transcribed and expressed. The excitation fluorescence catalyzed by Luciferase can be detected after the addition of […] substrate, whose intensity can quantitively reflect the activation level of the signal pathway.
Human osteosarcoma cell line U20S was commercially available from American Type Culture Collection (ATCC), and relevant culture conditions referred to those from ATCC. It was known that such cell line could express IL-10R2, JAK1, TYK2 and STAT3, therefore, by exogenous expression of IL-10R1 gene, a complete IL-10 signal pathway could be established. The human IL-10R1 subunit overexpression plasmid pCMV3-IL10RA-EGFP was constructed by Shanghai Genechem Co., Ltd., and capable of simultaneously expressing enhanced green fluorescent protein. In the subsequent detection and calculation, the signal of green fluorescent protein in the tested sample was used as a reference for transfection efficiency calibration of the luciferase reporter gene signal. Reporter plasmid STAT3-Luc Reporter was commercially available from Ji Man Biotech (Shanghai) Co., Ltd.
X-tremeGENE 9 DNA Transfection Reagent (Roche) was used for the transfection of plasmid DNA into cells, Cell Culture Lysis 5× reagent (Promega) and Luciferase Assay System (Promega) were used in cell lysate preparation and enzyme-substrate reaction for luciferase reporter gene detection. Green fluorescent protein signal and luciferase reporter gene signal were both detected by Tecan Spark™ 10M multimode microplate reader. The inhibition rate of the tested compound on the IL-10 signal pathway reporter gene signal and the half inhibition dose IC50 were both calculated using Microsoft Excel and GraphPad Prism 7.00 software.
U2OS cell line was inoculated in 96-well plate with flat bottom at 5000 cells per well, and cultured overnight at 37° C. and 5% CO2 followed by plasmid transfection. Following the instructions and using X-tremeGENE 9 DNA Transfection Reagent, pCMV3-IL10RA-EGFP and STAT3-Luc Reporter plasmids were co-transfected into the inoculated U2OS cells. After 24 hours of transfection, the tested compound was added respectively for a final concentration of 0, 0.1, 0.3, 1, 3, 10, 30, 100, or 300 nM. After 6 hours of culture at 37° C. and 5% CO2, IL-10 cytokine (Human IL-10 PEPROTECH 200-10-10UG) was added to each well for a final concentration of 10 ng/mL, the well in which neither compound nor cytokine was added was designated as 0% control well. The culture was continued for 24 hours before testing.
Cell lysate was prepared by using Cell Culture Lysis reagent and transferred to 96-well plate with half-well clear bottom. The green fluorescent protein signal value was detected at Ex485/Em520 using Tecan microplate reader, and recorded. After adding to each well the luciferase substrate from Luciferase Assay System, the signal value of luciferase-substrate reaction was immediately detected at 560 nm using Tecan microplate reader, and recorded.
Using Microsoft Excel software, the signal value of luciferase-substrate reaction of each well was calculated and calibrated based on the signal value of green fluorescent protein of each well. […]

[3] = test system: EPO-induced JAK2 signal pathway; assay: EPO-induced proliferation of UT-7 cells (JAK2 signal); conditions: Homo sapiens, UT7; UT-7 cell proliferation, EPO 10 ng/mL, 72 hours; read-out: Inhibition activity IC50 on EPO-induced JAK2 signal pathway
Method in brief: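 UT-7 cells (15000/well) stimulated with 10 ng/mL human recombinant EPO plus compound at final 0, 100, 1000 or 10000 nM, 72 h at 37° C., 5% CO2. Proliferation by alamarBlue fluorescence (Ex530/Em590); inhibition normalised to no-cytokine/no-compound (0) and EPO-only (100) wells, […] derived from dose-inhibition.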

SMILES	IC50 [1]	IC50 [2]	IC50 [3]
CCONC(=O)c1cnc(Nc2ccnc(C)n2)cc1Nc1cccc(-c2ncc(C)cn2)c1OC [Example 240, N-ethoxy-4-((2-methoxy-3-(5-methylpyrimidin-2-yl)phenyl)amino)-6-((2-methylpyrimidin-4-yl)amino)nicotinamide]	> 10 µM	0.000258 µM	> 10 µM
CONC(=O)c1cnc(Nc2ccc(OC)cn2)cc1Nc1ccccc1N(C)S(C)(=O)=O [Example 101]	> 10 µM	0.00147 µM	> 10 µM
CONC(=O)c1cnc(Nc2cccc(F)n2)cc1Nc1ccc(C)nc1N(C)S(C)(=O)=O [Example 109, 6-((6-fluoropyridin-2-yl)amino)-N-methoxy-4-((6-methyl-2-(N-methylmethanesulfonamido)pyridin-3-yl)amino)nicotinamide]	> 10 µM	0.000733 µM	> 10 µM
CCONC(=O)c1cnc(Nc2ccc(C#N)cn2)cc1Nc1ccc(Cl)cc1N(C)S(C)(=O)=O [Example 114, 4-((4-chloro-2-(N-methylmethanesulfonamido)phenyl)amino)-N-ethoxy-6-((5-cyanopyridin-2-yl)amino)nicotinamide]	> 10 µM	0.00032 µM	> 10 µM
CCONC(=O)c1cnc(NC(=O)C2CC2)cc1Nc1cccc(-c2ncc(C)cn2)c1OC [Example 239, 6-(cyclopropylcarboxamido)-N-ethoxy-4-((2-methoxy-3-(5-methylpyrimidin-2-yl)phenyl)amino)nicotinamide]	> 10 µM	0.000289 µM	> 10 µM
CONC(=O)c1cnc(Nc2ccc(F)cn2)cc1Nc1ccc(C)nc1N(C)S(C)(=O)=O [Example 60]	> 10 µM	0.00115 µM	> 10 µM
CCONC(=O)c1cnc(Nc2cc(C)nc(C)n2)cc1Nc1ccc(OC(C)C)cc1N(C)S(C)(=O)=O [Example 178, 6-((2,6-dimethylpyrimidin-4-yl)amino)-N-ethoxy-4-((4-isopropoxy-2-(N-methylmethanesulfonamido)phenyl)amino)nicotinamide]	> 10 µM	0.00128 µM	> 10 µM
[2H]C([2H])([2H])NC(=O)c1cnc(Nc2ccccn2)cc1Nc1cccc(-c2ncc(F)cn2)c1OC [Example 253, 4-((3-(5-fluoropyrimidin-2-yl)-2-methoxyphenyl)amino)-N-(methyl-d3)-6-(pyridin-2-ylamino)nicotinamide, reference compound]		0.00975 µM	
CONC(=O)c1cnc(NC(=O)[C@H]2CC2(C)C)cc1Nc1ccccc1N(C)S(C)(=O)=O [Example 105, (S)-6-(2,2-dimethylcyclopropyl-1-carboxamido)-N-methoxy-4-((2-(N-methylmethanesulfonamido)phenyl)amino)nicotinamide]	> 10 µM		> 10 µM
CONC(=O)c1cnc(Nc2ccc(C)cn2)cc1Nc1ccc(C)cc1N(C)S(C)(=O)=O [Example 107, N-methoxy-4-((4-methyl-2-(N-methylmethanesulfonamido)phenyl)amino)-6-((5-methylpyridin-2-yl)amino)nicotinamide]	> 10 µM		> 10 µM
CCONC(=O)c1cnc(NC(=O)C2CC2)cc1Nc1cc(Cl)c(C2CC2)cc1N(C)S(C)(=O)=O [Example 150, 4-((5-chloro-4-cyclopropyl-2-(N-methylmethanesulfonamido)phenyl)amino)-6-(cyclopropylcarboxamido)-N-ethoxy nicotinamide]	> 10 µM		> 10 µM
CC(C)ONC(=O)c1cnc(Nc2cccc(F)n2)cc1Nc1ccc(C2CC2)cc1N(C)S(C)(=O)=O [Example 23, 4-((4-cyclopropyl-2-(N-methylmethanesulfonamido)phenyl)amino)-6-((6-fluoropyridin-2-yl)amino)-N-isopropoxy nicotinamide]	> 10 µM		> 10 µM
CONC(=O)c1cnc(Nc2ccc(F)cn2)cc1Nc1cccc(-c2ccn(C)n2)c1OCC(F)(F)F [Example 51, 6-((5-fluoropyridin-2-yl)amino)-N-methoxy-4-((3-(1-methyl-1H-pyrazol-3-yl)-2-(2,2,2-trifluoroethoxy)phenyl)amino)nicotinamide]	> 10 µM		> 10 µM
CCONC(=O)c1cnc(Nc2nc(C)cc(C)n2)cc1Nc1ccc(C2CC2)cc1N(C)S(C)(=O)=O [Example 123, 4-((4-cyclopropyl-2-(N-methylmethanesulfonamido)phenyl)amino)-6-((4,6-dimethylpyrimidin-2-yl)amino)-N-ethoxy nicotinamide]	> 10 µM		> 10 µM
CONC(=O)c1cnc(NC(=O)C2CC2)cc1Nc1cccc(-c2cnn(C)c2)c1OC(F)F [Example 54, 6-(cyclopropylcarboxamido)-4-((2-(difluoromethoxy)-3-(1-methyl-1H-pyrazol-4-yl)phenyl)amino)-N-methoxy nicotinamide]	> 10 µM		> 10 µM
CONC(=O)c1cnc(Nc2cccc(F)n2)cc1Nc1ccccc1P(C)(C)=O [Example 74, 4-((2-(dimethylphosphoryl)phenyl)amino)-6-((6-fluoropyridin-2-yl)amino)-N-methoxy nicotinamide]	> 10 µM		> 10 µM
CCONC(=O)c1cnc(Nc2cnn(C)c2)cc1Nc1ccc(C2CC2)cc1N(C)S(C)(=O)=O [Example 140, 4-((4-cyclopropyl-2-(N-methylmethanesulfonamido)phenyl)amino)-N-ethoxy-6-((1-methyl-1H-pyrazol-4-yl)amino)nicotinamide]	> 10 µM		> 10 µM
C#Cc1ccc(Nc2cc(Nc3cccc(F)n3)ncc2C(=O)NOC(C)C)c(N(C)S(C)(=O)=O)c1 [Example 24]	> 10 µM		> 10 µM
CONC(=O)c1cnc(Nc2cccc(F)n2)cc1Nc1ccccc1S(=O)(=O)N(C)C [Example 37, 4-((2-(N,N-dimethylaminosulfonyl)phenyl)amino)-6-((6-fluoropyridin-2-yl)amino)-N-methoxy nicotinamide]	> 10 µM		> 10 µM
CONC(=O)c1cnc(Nc2ccc(F)cc2)cc1Nc1cccnc1N(C)S(C)(=O)=O [Example 17, 6-((4-fluorophenyl)amino)-N-methoxy-4-((2-(N-methylmethanesulfonamido)pyridin-3-yl)amino)nicotinamide]	> 10 µM		> 10 µM
CONC(=O)c1nnc(NC(=O)C2CC2)cc1Nc1cccc(-c2ncn(C)n2)c1OC [Example 52, 6-(cyclopropylcarboxamido)-N-methoxy-4-((2-methoxy-3-(1-methyl-1H-1,2,4-triazol-3-yl)phenyl)amino)pyridazine-3-carboxamide]	> 10 µM		> 10 µM
